Test results as given in patent US12721844B2, “Chronic kidney disease treatment or prevention method” (Japan Tobacco Inc., priority 2019, dated 2026).
Where “and” joins values, the source holds several entries; their conditions need not be identical. Equal values may be shown once.

Key:
Type in all cases: cell-based
[1] = tested on: Salmonella typhimurium (TA98, TA1537, TA100, and TA1535) and Escherichia coli (WP2 uvrA); assay: Ames test (reverse mutation test), all bacterial tester strains; conditions: any of the bacterial tester strains, with and/or without S9 mix
Text: (§1) Ames Test (Reverse Mutation Test)
(§2) Two plates per treatment were used.

[2] = tested on: Salmonella typhimurium TA1535; assay: Ames test (reverse mutation test), TA1535
Text: as §1, §2

[3] = tested on: Salmonella typhimurium TA98; assay: Ames test (reverse mutation test), TA98; conditions: with S9 mix
Text: as §1, §2

[4] = tested on: Salmonella typhimurium TA1537; assay: Ames test (reverse mutation test), TA1537
Text: as §1, §2

[5] = tested on: Salmonella typhimurium TA100; assay: Ames test (reverse mutation test), TA100; conditions: with S9 mix
Text: as §1, §2

[6] = tested on: Escherichia coli WP2 uvrA; assay: Ames test (reverse mutation test), WP2 uvrA; conditions: for Number of revertant colonies WP2uvrA: S9 Mix −
Text: as §1, §2

[7] = with S9 mix, dose 1667 μg/plate
[8] = with S9 mix, dose 5000 μg/plate

SMILES	potential to induce reverse mutations, TA98 [3]	potential to induce reverse mutations, TA1537 ([4]; with S9 mix)	potential to induce reverse mutations, TA100 [5]	Number of revertant colonies TA1535 ([2]; S9 Mix +, 2.3 μg/plate)	Number of revertant colonies TA1535 ([2]; S9 Mix +, 6.9 μg/plate)	Number of revertant colonies TA1535 ([2]; S9 Mix +, 21 μg/plate)	Number of revertant colonies TA1535 ([2]; S9 Mix +, 62 μg/plate)	Number of revertant colonies TA1535 ([2]; S9 Mix +, 185 μg/plate)	Number of revertant colonies TA1535 ([2]; S9 Mix +, 556 μg/plate)	Number of revertant colonies TA1535 ([2]; S9 Mix +, 1667 μg/plate)	Number of revertant colonies TA1535 ([2]; S9 Mix +, 5000 μg/plate)	Number of revertant colonies TA1535 ([2]; S9 Mix −, 2.3 μg/plate)	Number of revertant colonies TA1535 ([2]; S9 Mix −, 6.9 μg/plate)	Number of revertant colonies TA1535 ([2]; S9 Mix −, 21 μg/plate)	Number of revertant colonies TA1535 ([2]; S9 Mix −, 62 μg/plate)	Number of revertant colonies TA1535 ([2]; S9 Mix −, 185 μg/plate)	Number of revertant colonies TA1535 ([2]; S9 Mix −, 556 μg/plate)	Number of revertant colonies TA1535 ([2]; S9 Mix −, 1667 μg/plate)	Number of revertant colonies TA1535 ([2]; S9 Mix −, 5000 μg/plate)	further results
CC(C)(C)Oc1cc(F)cc(-c2cc(N)nn2C(F)(F)F)c1 [Metabolite 1]	–	–	–	–	–	–	–	–	–	–	–	–	–	–	–	–	–	–	–	potential to induce reverse mutations [1]: did not show potential to induce reverse mutations; Number of revertant colonies TA1535 ([2]; with S9 mix, dose 2.3 μg/plate): 13; Number of revertant colonies TA1535 ([2]; with S9 mix, dose 6.9 μg/plate): 7; Number of revertant colonies TA1535 ([2]; with S9 mix, dose 21 μg/plate): 6; Number of revertant colonies TA1535 ([2]; with S9 mix, dose 62 μg/plate): 8; Number of revertant colonies TA1535 ([2]; with S9 mix, dose 185 μg/plate): 5; Number of revertant colonies TA1535 ([2]; with S9 mix, dose 556 μg/plate): 4; Number of revertant colonies TA1535 [2, 7]: 4; Number of revertant colonies TA1535 [2, 8]: 2; Number of revertant colonies TA1535 ([2]; without S9 mix, dose 2.3 μg/plate): 6; Number of revertant colonies TA1535 ([2]; without S9 mix, dose 6.9 μg/plate): 9; Number of revertant colonies TA1535 ([2]; without S9 mix, dose 21 μg/plate): 8; Number of revertant colonies TA1535 ([2]; without S9 mix, dose 62 μg/plate): 8; Number of revertant colonies TA1535 ([2]; without S9 mix, dose 185 μg/plate): 0; Number of revertant colonies TA1535 ([2]; without S9 mix, dose 556 μg/plate): 0; Number of revertant colonies TA1535 ([2]; without S9 mix, dose 1667 μg/plate): 0; Number of revertant colonies TA1535 ([2]; without S9 mix, dose 5000 μg/plate): 0
Cc1cccc(-n2nc(N)cc2-c2cccc(OC(F)(F)F)c2)c1 [Metabolite H]	showed potential to induce reverse mutations	showed potential to induce reverse mutations	showed potential to induce reverse mutations	11	14	19	15	13	6	3	3	12	17	18	14	14	6	6	4	–
CC(C)(OCc1cc(F)cc(-c2cc(N)nn2-c2ccc(F)cc2)c1)C(F)(F)F [Metabolite D]	showed potential to induce reverse mutations	showed potential to induce reverse mutations	–	10	15	14	11	9	7	7	3	20	21	11	6	9	5	6	7	–
CC(C)(C)Oc1cccc(-c2cc(N)nn2-c2ccccc2)c1 [Metabolite C]	showed potential to induce reverse mutations	–	showed potential to induce reverse mutations	–	–	–	–	–	–	–	–	6	5	6	3	4	0	1	0	Number of revertant colonies TA1537 ([4]; with S9 mix, dose 2.3 μg/plate): 6; Number of revertant colonies TA1537 ([4]; with S9 mix, dose 6.9 μg/plate): 7; Number of revertant colonies TA1537 ([4]; with S9 mix, dose 21 μg/plate): 7; Number of revertant colonies TA1537 ([4]; with S9 mix, dose 62 μg/plate): 9; Number of revertant colonies TA1537 ([4]; with S9 mix, dose 185 μg/plate): 9; Number of revertant colonies TA1537 ([4]; with S9 mix, dose 556 μg/plate): 4; Number of revertant colonies TA1537 [4, 7]: 4; Number of revertant colonies TA1537 [4, 8]: 5; Number of revertant colonies TA1535 ([2]; with S9 mix, dose 2.3 μg/plate): 8; Number of revertant colonies TA1535 ([2]; with S9 mix, dose 6.9 μg/plate): 8; Number of revertant colonies TA1535 ([2]; with S9 mix, dose 21 μg/plate): 5; Number of revertant colonies TA1535 ([2]; with S9 mix, dose 62 μg/plate): 4; Number of revertant colonies TA1535 ([2]; with S9 mix, dose 185 μg/plate): 5; Number of revertant colonies TA1535 ([2]; with S9 mix, dose 556 μg/plate): 4; Number of revertant colonies TA1535 [2, 7]: 5; Number of revertant colonies TA1535 [2, 8]: 4
Nc1cc(-c2cccc(OCC(F)(F)F)c2)n(-c2ccc(F)cc2)n1 [Metabolite E]	showed potential to induce reverse mutations	showed potential to induce reverse mutations	showed potential to induce reverse mutations	18	32	20	21	15	7	0	0	10	18	12	15	6	0	0	0	potential to induce reverse mutations, TA1537 ([4]; without S9 mix): showed potential to induce reverse mutations; potential to induce reverse mutations, TA1535 ([2]; with S9 mix): showed potential to induce reverse mutations; Number of revertant colonies WP2uvrA ([6]; 2.3 μg/plate): 20; Number of revertant colonies WP2uvrA ([6]; 6.9 μg/plate): 26; Number of revertant colonies WP2uvrA ([6]; 21 μg/plate): 24; Number of revertant colonies WP2uvrA ([6]; 62 μg/plate): 27; Number of revertant colonies WP2uvrA ([6]; 185 μg/plate): 22; Number of revertant colonies WP2uvrA ([6]; 556 μg/plate): 10; Number of revertant colonies WP2uvrA ([6]; 1667 μg/plate): 15; Number of revertant colonies WP2uvrA ([6]; 5000 μg/plate): 7
Nc1cc(-c2cccc(OC(F)(F)F)c2)n(-c2cccc(F)c2)n1 [Metabolite G]	–	–	showed potential to induce reverse mutations	12	14	11	8	5	5	4	4	15	16	21	9	9	0	0	0	potential to induce reverse mutations, TA1535 ([2]; without S9 mix): showed potential to induce reverse mutations; Number of revertant colonies WP2uvrA ([6]; 2.3 μg/plate): 26; Number of revertant colonies WP2uvrA ([6]; 6.9 μg/plate): 23; Number of revertant colonies WP2uvrA ([6]; 21 μg/plate): 16; Number of revertant colonies WP2uvrA ([6]; 62 μg/plate): 14; Number of revertant colonies WP2uvrA ([6]; 185 μg/plate): 15; Number of revertant colonies WP2uvrA ([6]; 556 μg/plate): 10; Number of revertant colonies WP2uvrA ([6]; 1667 μg/plate): 17; Number of revertant colonies WP2uvrA ([6]; 5000 μg/plate): 6
Cc1ccc(-n2nc(N)cc2-c2cccc(OCC(F)(F)F)c2)cc1 [Metabolite F]	showed potential to induce reverse mutations	showed potential to induce reverse mutations	showed potential to induce reverse mutations	22	21	20	23	13	7	0	0	17	13	19	11	3	0	0	0	potential to induce reverse mutations, WP2 uvrA ([6]; without S9 mix): showed potential to induce reverse mutations
Nc1ccc2cc3ccccc3cc2c1 [Example 2AA, 2-Aminoanthracene, reference compound]	–	–	–	–	–	–	–	–	–	–	–	–	–	–	–	–	–	–	–	Number of revertant colonies TA98 ([3]; dose 0.5 μg/plate (positive control)): 289; Number of revertant colonies TA1537 ([4]; with S9 mix, dose 2 μg/plate (positive control)): 135; Number of revertant colonies TA1535 ([2]; S9 Mix +, 2.0 μg/plate): 332 and 308 and 331 and 261 and 349; Number of revertant colonies TA1535 ([2]; with S9 mix, dose 2.0 (2) μg/plate (positive control)): 223 and 146 and 250
NC(=O)C(=Cc1ccc([N+](=O)[O-])o1)c1ccco1 [AF-2, 2-(2-Furyl)-3-(5-nitro-2-furyl)acrylamide, reference compound]	–	–	–	–	–	–	–	–	–	–	–	–	–	–	–	–	–	–	–	Number of revertant colonies WP2uvrA ([6]; 0.01 μg/plate): 74 and 89 and 100 and 87 and 79
Cl.Nc1c2ccccc2nc2ccccc12.O [Example 9AA, 9-Aminoacridine hydrochloride monohydrate, reference compound]	–	–	–	–	–	–	–	–	–	–	–	–	–	–	–	–	–	–	–	Number of revertant colonies TA1537 ([4]; without S9 mix, dose 80 μg/plate (positive control)): 372
